Laboratory results as given in patent US20220291203A1, “METHODS OF MEASURING CELL-MEDIATED KILLING BY EFFECTORS” (IMMUNOWAKE INC., priority 2019, published 2022).
“Also recorded” adds a separate entry of the source.

System: dual reporter MDA-MB-231 cells (MDA-MB-231 WT)
Assay: T cell killing in 3D tumor-fibroblast spheroids (Example 17)
Format: cell-based, human
Settings: nivolumab 0.5 μg/mL; 3D spheroids, 3E:1T
Source text: Dual reporter MDA-MB-231 cell line with PD-L1 knockout (KO) (hereinafter referred to as “dual reporter MDA-MB-231 PD-L1 KO cells” or “MDA-MB-231 KO”) was constructed by co-transducing the Tet-on snLuc-GFP construct as constructed in Example 1 and CRISPR/Cas9 constructs targeting PD-L1. 3D tumor-fibroblast spheroids were generated by co-culturing 10,000 human dermal fibroblasts and 10,000 dual reporter MDA-MB-231 cells (“MDA-MB-231 WT”) or dual reporter MDA-MB-231 PD-L1 KO cells in ultra-low attachment plates for 3 days. After spheroid formation, 30,000 unstimulated primary T cells (3E:1T) were added in the presence of increasing concentrations of trispecific anti-HER2/anti-CD47/anti-CD3 antibody (serially diluted 5-fold, 1000 ng/mL-0.032 ng/mL), and without or with anti-PD-1 antibody nivolumab (0.5 μg/mL).
The trispecific anti-HER2/anti-CD47/anti-CD3 antibody (made in house) has no Fc function due to LALA mutations and cannot mediate ADCC. The cell-killing reaction was incubated for 48 hours. […] Cell culture media was taken one day post-induction with doxycycline (t=72 hr), and luminescence was measured on a GloMax Discover Microplate Reader. Percent cell survival was defined as luminescence readout at various antibody concentrations relative to the average readout with no antibody. […]

nivolumab
effect of nivolumab on trispecific antibody-mediated T cell killing: rescued T cell killing on dual reporter MDA-MB-231 cells; also recorded: could rescue the immunosuppression on cytotoxic T cells
